Here are results for one compound from patent US7910584B2, “3-spiroindolin-2-one derivatives, preparation and therapeutic use thereof” (Sanofi-Aventis, priority 2004, dated 2011).

The assay has as its target T1, recombinant human vasopressin V2 receptors (Homo sapiens, UniProt P30518).
T1 construct: expressed in transfected cells; host or cells: CHO cell line (plasma membranes)
As to the kind of experiment: In vitro binding assay, [3H]-AVP displacement on plasma membranes. The conditions noted are these: membranes from tissues or CHO cell line expressing recombinant human V2 receptors; 3.5 nM [H3]-AVP; 45 minutes at 25° C.; read-out: IC50 (concentration of product that inhibits 50% of the specific binding). As for the experimental part: They were in particular tested with regard to their effects.
The affinity of the compounds of the invention for vasopressin V2 receptors was measured in in vitro binding assays, as described in J. Pharmacol. Exp. Ther., (2002), 300, pp. 1122-1130.
Plasma membranes (approximately 20 μg/ml) originating from tissues or the CHO cell line expressing recombinant human vasopressin V2 receptors are incubated for 45 minutes at 25° C. in 200 μl of TRIS-HCl buffer (50 mM; pH 8.2) containing 2 mM of MgCl2, 1 mM of EDTA, 0.1% of BSA, 1 mg/ml of bacitracin and 3.5 nM of [H^3]-AVP. The reaction is stopped by filtration and washing over GF/B filters. The nonspecific binding is determined in the presence of 1 μM of AVP. The compounds of the invention, dissolved beforehand at the concentration of 10^−2 M in DMSO, are tested in a dilution range.
For each concentration, the results are expressed as percentage inhibition of specific binding. An IC50 (concentration of product that inhibits 50% of the specific binding) is determined for each of the products using the “RS1 binding” program (BBN Domain, Cambridge, Mass.).

T1 sequence (P30518 whole entry): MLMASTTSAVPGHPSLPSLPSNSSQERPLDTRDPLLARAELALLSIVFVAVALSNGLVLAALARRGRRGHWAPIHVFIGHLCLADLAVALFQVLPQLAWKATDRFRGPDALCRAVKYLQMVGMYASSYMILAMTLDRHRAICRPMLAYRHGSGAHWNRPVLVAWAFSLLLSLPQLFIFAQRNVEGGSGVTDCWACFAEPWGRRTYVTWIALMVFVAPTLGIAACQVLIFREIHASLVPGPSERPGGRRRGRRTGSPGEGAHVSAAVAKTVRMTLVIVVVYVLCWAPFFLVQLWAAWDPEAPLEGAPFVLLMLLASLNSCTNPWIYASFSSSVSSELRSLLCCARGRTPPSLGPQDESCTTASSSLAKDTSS

Consider `CCOc1ccc2c(c1)C1(CCC(OCCN3CCOCC3=O)CC1)C(=O)N2S(=O)(=O)c1ccc(C(=O)NC(C)(C)C)cc1OC` (stereo not shown), for which the IC50 is around 7.3 nM.
